The nature of series [1]: Photocatalytic NADH oxidation (UV-vis). It is filed as biochemical. The note with it: first hour, complex 2.5 μM, NADH 100 μM. The arrangement: key: TON = ΔNADH concentration after 1 h / photocatalyst concentration. The protocol: Fresh stock solutions of the complexes at 7.50 μM in H2O/MeOH mixture (97.5/2.5, v/v) and NADH at 300 μM in H2O/MeOH mixture (97.5/2.5, v/v) were prepared. In a quartz cell, 1 mL of complex solution, 1 mL of NADH solution, and 1 mL of solvent mixture were mixed to prepare a final solution with 2.50 μM complex and 100 μM NADH (complex/NADH rate = 1/40). The solutions were studied by recording UV–vis absorption spectra in dark conditions and under blue light irradiation (λexc = 470 nm, “Medusa” photoreactor) at ambient temperature and various time intervals for 8 h. In addition, a solution of NADH at 100 μM was studied under blue light irradiation to confirm its photostability. The photocatalytic rate of the photosensitizers was evaluated by monitoring its absorbance decrease at 340 nm, which correspond to NADH oxidation.
The turnover numbers (TONs) of complexes were calculated by measuring the absorption difference at 340 nm after 1 h of reaction. TON was calculated from the difference in NADH concentration after 1 h divided by the concentration of photocatalyst (eq 5), where b is the optical path length (1 cm). The concentration of NADH was obtained using the extinction coefficient ε340 = 5751 M^–1 cm^–1.[40],[148] [drawing 26] 5

Series [2] can be described thus: 1O2 quantum yield determination with ABDA. The note with it: H2O/DMSO (95:5); 470 nm blue light. The protocol:
Fresh stock air-equilibrated solutions of photosensitizers 1–2 and 7–8 (1.00 × 10^–3 M) and ABDA (6.00 × 10^–4 M) in H2O/DMSO (95:5) were prepared. In a quartz cell, 0.50 mL of ABDA solution, 0.03 mL of complex solution, and 2.47 mL of H2O/DMSO (95:5) were mixed to prepare a final solution with 1.00 × 10^–4 M ABDA and 1.00 × 10^–5 M complex. The final solutions were studied by recording UV–vis absorption spectra at room temperature under blue light irradiation (λexc = 470 nm, “Medusa” photoreactor) for 30 s irradiation intervals during a total exposure period of 5 min. Absorption UV–vis spectra were recorded after every irradiation interval.
The consumption of ABDA probe was measured by monitoring its absorbance intensity decrease at 402 nm with irradiation time. ^1O2 generation quantum yield (ϕΔ) was calculated from eq 1 using Rose Bengal or [Ru(bpy)3]^2+ as reference. In this case, the ϕΔ values of the references in H2O/DMSO (95:5) are 0.76 for Rose Bengal[73] and 0.18 for [Ru(bpy)3]Cl2.[136] The reproducibility of the results was confirmed by performing each experiment three times.

Series [3] is described as follows: Lipophilicity by the shake flask method. It is filed as physicochemical. The note with it: 1-octanol/water; for logD9.2: carbonate–bicarbonate buffer pH 9.2. The protocol: The partition coefficients of complexes 5, 6, 7, and 8 were determined by the standard “shake flask” method.[37],[84],[85] Octanol-saturated water (OSW) and water-saturated octanol (WSO) were prepared using analytical grade 1-octanol and ultrapure water. The complexes were dissolved in WSO and molar extinction coefficient was determined. Then, 2 mL of 25 μg/mL complex in WSO was shaken with 2 mL of OSW at 1500 rpm for 6 h at room temperature. To separate the phases, centrifugation was done at 4000 rpm for 10 min. The absorbance of WSO phase before and after shaking was measured. The absorbance of WSO before mixing minus the absorbance of WSO after mixing corresponds to the absorbance of the complex in OSW. The distribution coefficients (log Do/w) of the complexes were obtained from the ratio of the complexes present in 1-octanol and the aqueous phase (eq 3). Each experiment was repeated three times. To avoid protonation in complexes 5 and 6, a carbonate–bicarbonate buffer at pH 9.2 in OSW was used. [drawing 24] 3 where A1-oct corresponds to the absorbance of WSO phase and Atotal is the actual concentration of the WSO before shaking.

The test system of series [4] is porcine red blood cells (RBC). Description: Hemolytic activity (hemoglobin release). The note with it: dark, 1 hour. It is filed as cell-based. The procedure:
The hemolytic activities of the complexes were determined by measuring hemoglobin release from porcine red blood cells (RBC). First, fresh porcine blood commercially obtained was diluted to 5% v/v in PBS solution and washed three times with PBS by centrifugation at 1000 rcf for 10 min. Then, RBC suspension (150 μL) was mixed with 150 μL of each complex at concentrations ranging from 1 to 50 μM. A solution of 0.2% Triton X-100 in PBS was used as positive control to induce complete hemolysis. PBS alone was used as negative control. Samples were incubated at 37 °C for 1 h in an orbital shaker (50 rpm) and then centrifuged at 3500 rcf for 10 min. 80 μL aliquots of the supernatant were transferred to a 96-well plate and diluted with 80 μL of Milli-Q water. Hemolysis was evaluated by measuring the absorbance of the samples at 540 nm with a Synergy 4 plate reader (BioTek, Winooski). The percentage of hemolysis (H) was calculated using eq 4: [drawing 25] 4 where As is the absorbance for a given sample, An is the absorbance for the negative control, and Ap is the absorbance for the positive control. Each sample was tested in triplicate.

Another series relates to A549 cells. Description: Intracellular ROS production (CM-H2DCFDA, flow cytometry). It is filed as cell-based, human. The note with it: for elevation of ROS levels (median fluorescence): 10 nM, 4 h then blue light 1 h, vs untreated control; for increase in cellular ROS content: complexes at IC50,dark, 5 h, no irradiation. The procedure: A549 cells were seeded onto 24-well plates (5 × 10^4 cells/well) 24 h before the experiment. The cells were incubated for 4 h with complexes 2, 4, 6, and 8 at 10 nM and then photoactivated or kept in the dark for an additional hour. In addition, the cells were treated for 5 h with the complexes at the corresponding IC50,dark without irradiation. The cells exposed for 30 min to 0.5 μM FeCl2 and 0.04% H2O2, as ROS inducers, were used as positive control. After the treatments, the cells were washed with PBS and harvested by trypsinization. Intracellular ROS were detected by incubation with the chloromethyl 2′,7′-dichlorodihydrofluorescein diacetate (CM-H2DCFDA; Invitrogen) probe at 2.5 μM for 30 min at 37 °C. After washing with PBS, the median fluorescence of 1 × 10^4 cells was measured with a NovoCyte flow cytometer (Agilent Technologies) equipped with the NovoExpress software. The fold increase versus control untreated cells was determined for each treatment in three independent experiments.

Each structure is given as a SMILES string.

With `Cc1c(C)c(C)[c-](C)c1C.[Cl][Ir]1[c]2cccc3c4nc5ccccc5nc4c4ccc[n+]1c4c23` [complex 1, [(η^5-C5Me5)IrCl(pbpz)]], the “TON1h (NADH oxidation)” value stood at 12.47 in series [1] (470 nm blue light) and 0.16 in series [1] (dark). For the same molecule, in series [2], the “1O2 generation quantum yield (ϕΔ), ABDA” value was 0.1913.

Consider `Cc1c(C)c(C)[c-](C)c1C.F[B-](F)(F)F.c1ccc2nc3c4ccc[n+]5c4c4[c](cccc4c3nc2c1)[Ir]5[n+]1ccn(CCN2CCCCC2)c1` [complex 5, [(η^5-C5Me5)Ir(Imepip)(pbpz)]BF4], for which the “TON1h (NADH oxidation)” value in series [1] (470 nm blue light) was found to be 2.36; in series [1] (dark), 0.37. The molecule further displayed a logD9.2 in series [3] of 1.10 ± 0.10.

Take `Cc1c(C)c(C)[c-](C)c1C.F[B-](F)(F)F.c1ccc2cc3nc4c5ccc[n+]6c5c5[c](cccc5c4nc3cc2c1)[Ir]6[n+]1cc[nH]c1` [complex 4, [(η^5-C5Me5)Ir(Im)(pbpn)]BF4]: the Hemolytic activity in series [4] (1 μM) was determined as 0%; in series [4] (5 μM) it was 0%; in series [4] (10 μM), 0.5%; in series [4] (25 μM), 6.7%. For the same molecule, the “elevation of ROS levels (median fluorescence)” value (“elevation of ROS levels” for short) with A549 cells is 2.2 fold. Further, in the series on A549 cells, the “increase in cellular ROS content” value worked out at 2.8 fold. Moreover, the “TON1h (NADH oxidation)” value in series [1] (470 nm blue light) came to 9.71; in series [1] (dark), 0.31.

Turning to `Cc1c(C)c(C)[c-](C)c1C.F[B-](F)(F)F.c1ccc(Cn2cc[n+]([Ir]3[c]4cccc5c6nc7cc8ccccc8cc7nc6c6ccc[n+]3c6c45)c2)cc1` [complex 8, [(η^5-C5Me5)Ir(bzIm)(pbpn)]BF4], the Hemolytic activity in series [4] (1 μM) is 0.2%; in series [4] (5 μM), 1.0%; in series [4] (10 μM), 3.2%; in series [4] (25 μM), 16.3%. Also, the “elevation of ROS levels” value in the series on A549 cells was 5.6 fold. The “increase in cellular ROS content” value in the series with A549 cells amounted to 1.7 fold. Moreover, the “TON1h (NADH oxidation)” value turned out to be 5.75 in series [1] (470 nm blue light) and 0.14 in series [1] (dark). For the same molecule, the “1O2 generation quantum yield (ϕΔ), ABDA” value in series [2] is 0.4986. The lipophilicity (logP) in series [3] was 1.13 ± 0.03.

In the case of `Cc1c(C)c(C)[c-](C)c1C.F[B-](F)(F)F.c1ccc(Cn2cc[n+]([Ir]3[c]4cccc5c6nc7ccccc7nc6c6ccc[n+]3c6c45)c2)cc1` [complex 7, [(η^5-C5Me5)Ir(bzIm)(pbpz)]BF4], the “TON1h (NADH oxidation)” value was 4.54 in series [1] (470 nm blue light) and 0.12 in series [1] (dark). For the same molecule, the “1O2 generation quantum yield (ϕΔ), ABDA” value in series [2] is reported as 0.0526. The same molecule yielded a logP in series [3] of 1.65 ± 0.16.

As to `Cc1c(C)c(C)[c-](C)c1C.F[B-](F)(F)F.c1ccc2cc3nc4c5ccc[n+]6c5c5[c](cccc5c4nc3cc2c1)[Ir]6[n+]1ccn(CCN2CCCCC2)c1` [complex 6, [(η^5-C5Me5) Ir(Imepip)(pbpn)]BF4], the Hemolytic activity in series [4] (1 μM) is listed as 0%; in series [4] (5 μM), 0%; in series [4] (10 μM) it was 1.0%; in series [4] (25 μM), 10.7%. For the same molecule, the “elevation of ROS levels” value with A549 cells turned out to be 2.4 fold. In the series on A549 cells, the “increase in cellular ROS content” value was 2.6 fold. The results for the “TON1h (NADH oxidation)” value in series [1] (470 nm blue light) and in series [1] (dark) were 7.79 and 0.94, respectively. In series [3], this molecule registered a logD9.2 of 1.39 ± 0.07.

(Values after paper PMC10859961, “Ir(III) Half-Sandwich Photosensitizers with a π-Expansive Ligand for Efficient Anticancer Photodynamic Therapy” (Journal of Medicinal Chemistry, 2024).)
